Reference: patent US8097752B2, “Antiprotozoal ring-substituted phospholipids” (priority 2002, dated 2012)
Structures can show the parent of a compound that is named as a salt. Where two headings read alike, the source gives them in different places.

Assays:
THP1 cells = experiment: Assessment of cytotoxicity in THP1 monocyte cells (SYBR-14/PI staining, flow cytometry); settings: THP1 monocytes infected with L. donovani and L. infantum; 72 hours; concentrations as low as 50 μM
Experimental: Thus, we proceeded to assess the cytotoxicity of four inventive compounds as well as miltefosine in the human monocytic cell line THP1.
Assessment of Cytotoxicity in THP1 Monocyte Cells.
As a quantitative measurement of the cell damage after incubation with different concentrations of drugs dual staining with SYBR-14 and PI (Molecular Probes, The Netherlands) was used followed by flow cytometry.
THP1 cell cultures were incubated at 1×10^6 cells/ml with different concentrations of the compounds ranging from 50 to 1.56 μM. After an incubation period of 72 hours approximately 4×10^6 cells were suspended in labeling buffer (10 mM HEPES, 150 mM NaCl, 10% BSA, pH 7.4) and 10 μg/ml PI and 0.1 mg/ml SYBR-14 were added. The cultures were incubated at 37° C. for 30 minutes before analysis by flow cytometry.
Cell samples were analyzed on an Epics Elite model flow cytometer (Coulter, Miami, Fla.). The green fluorescence of SYBR-14 and the red fluorescence of PI were excited at 488 nm. At least 10,000 cells were analyzed per sample and each staining experiment was repeated twice. Data analysis was performed on fluorescence intensities that excluded cell autofluorescence and cell debris.
THP1 monocytes infected with the appropriate Leishmania species were used for the evaluation of the leishmanicidal activity of the compounds against the intracellular amastigote stages of the parasite.

[1] = system: promastigote forms of Leishmania infantum; experiment: In vitro antileishmanial activity in promastigote cultures (MTT), L. infantum; format: cell-based, Leishmania infantum MHOM/TN/80/IPT1/LEM 235; settings: promastigotes, 72 h incubation, mean ± SEM, n = 3-4 (each run in duplicate), read-out: IC50 (μM) L. infantum MON 235
Experimental: (§1) Determination of in Vitro Antileishmanial Activity in Promastigote Cultures.
(§2) The effect of the phospholipids according to the present invention against the promastigote forms of Leishmania donovani and Leishmania infantum was evaluated using an MTT (3-(4,5-dimethylthiazol-2yl)-2,5-diphenyltetrazolium bromide)-based enzymatic method as a marker of cell viability and was compared with that of the ether phospholipid hexadecylphosphocholine (Miltefosine). Thus, promastigotes of Leishmania infantum MHOM/TN/80/IPT1/LEM 235 and Leishmania donovani MHOM/IN/80/DD8/LEM 703, were grown in RPMI 1640 supplemented with 10% FCS, L. glutamine and antibiotics, at 26° C. All new compounds were dissolved in DMSO to a final concentration of 9.625 mM and linear 3-fold dilutions were done in the culture medium. 25 μL of promastigote culture at 5×10^5 cells/mL were cultured in a 96-well flat-bottom plate (Costar 3696), and incubated with 25 μL of different drug concentrations at 26° C. After 72 h, 10 μL of 5 mg/mL MTT in PBS (SIGMA M2128) were added and incubation was continued for 3 h. The reaction was stopped by the addition of 50 μL of 50% isopropanol, 10% SDS under gentle shacking for 30 min. Absorbance was measured at 550 nm with reference at 620 nm in a TRITURUS microplate reader.

[2] = system: promastigote forms of Leishmania donovani; experiment: In vitro antileishmanial activity in promastigote cultures (MTT), L. donovani; format: cell-based, Leishmania donovani MHOM/IN/80/DD8/LEM 703; settings: promastigotes, 72 h incubation, mean ± SEM, n = 3-4 (each run in duplicate), read-out: IC50 (μM) L. donovani MON 703
Experimental: as §1, §2

visceral leishmaniasis = settings: cited from earlier work
cutaneous leishmaniasis = settings: phase I study; 100-150 mg for 3 weeks; cited from earlier work

Row | Compound | cytotoxic effect on THP1 cells (percentage of live THP1 cells, FIG. 1) (THP1 cells) | IC50 [1] [µM] | IC50 [2] [µM] | effectiveness in treating mice infected with visceral leishmaniasis (visceral leishmaniasis; mice) | effectiveness of oral treatment relative to subcutaneous administration of pentostam (visceral leishmaniasis; oral miltefosine vs subcutaneous pentostam, mice infected with visceral leishmaniasis) [fold] | IC50 ([1]; Leishmania infantum) [µM] | IC50 ([2]; Leishmania donovani) [µM] | cure rate (cutaneous leishmaniasis) [%]
1 | C[N+](C)(C)CCOP(=O)([O-])OCCCCCCCCCCC=C1CCCCC1 [Example 13, 1-{2-[(11-Cyclohexylideneundecyloxy)hydroxyphosphinyloxy]ethyl}-N,N,N-trimethylammonium inner salt] | not observed | 5.2 ± 1.5 | 2.4 ± 0.6 |  |  |  |  | 
2 | C[N+](C)(C)CCOP(=O)([O-])OCCCCCCCCCCC=C1C2CC3CC(C2)CC1C3 [Example 19, 1-{2-[(11-Adamantylideneundecyloxy)hydroxyphosphinyloxy]ethyl}-N,N,N-trimethylammonium inner salt] | not observed | 6.75 ± 2.4 | 3.16 ± 0.63 |  |  |  |  | 
3 | CCCCCCCCCCCCCCCCOP(=O)([O-])OCC[N+](C)(C)C [Miltefosine, hexadecylphosphocholine] |  |  |  | highly effective | 600 | 22.6 ± 3.6 | 23.7 ± 4.07 | 94
